Reference: a melting point compilation (Tetko et al.; mined from patent text by program, amines drawn as free bases though some values may be those of a salt)

| melting point | SMILES |
| --- | --- |
| 170 °C | OC(Cn1cncn1)(c1ccc(Oc2ccc(Cl)cc2)cc1Cl)C1CC1 (configuration not stated) |
| 34 to 37 °C | CCCCCCCCCCCCCCCCCCSC(C)(C)C(=O)CC(=O)OCC |
| 258 to 260 °C | Cc1c(F)c(Cl)cc2c1c(=O)c(C(=O)O)cn2C1CC1 |
| 289 to 291 °C | COc1ccc(C(=O)NCc2cccc3c2CN(C2CCC(=O)NC2=O)C3=O)cc1 (configuration not stated) |
| 212 °C | CCc1nnc2n1N=C1c3cc(OC)c(OC)cc3CC1S2 (configuration not stated) |
| 228 °C | COc1ccc2c(=O)c(O)cn(C)c2c1 |
| 179 to 180 °C | CCn1ncc2c1ncc1c(N3CCOCC3)nc3cc(C)nn3c12 |
| 238 to 240 °C | Cc1ccc(NC(=O)NCc2cccc3c2C(=O)N(C2CCC(=O)NC2=O)C3=O)cc1Cl (configuration not stated) |
| 290 to 292 °C | O=C1CCC(N2C(=O)c3ccc(CNC(=O)Nc4ccc(Cl)c(Cl)c4)cc3C2=O)C(=O)N1 (configuration not stated) |
| 181 to 184 °C | Nc1cc(Oc2ccc(S(=O)(=O)c3ccc(OCc4ccccc4)c(Cl)c3)cc2Cl)c([N+](=O)[O-])cc1O |
| 66 to 67 °C | CN(CCCCN1C(=O)C=CC1=O)c1ccccc1 |
| 122 to 125 °C | COC(=O)c1c(C)cc(O)c(Cl)c1O |
| 66 to 68 °C | O=C1C(Cc2ccccc2)CCCCCC1Cc1ccccc1 (configuration not stated) |
| 257 to 259 °C | CC(=O)Nc1c2c(cc3c1CCC3)CCC2 |
| 160 to 161 °C | Nc1ccccc1C(=O)Nc1ccc(C(F)(F)F)cc1 |
| 129 to 131 °C | COc1cc2c3ccc(OC)c(OC)c3n(C(=O)c3ccc(C(C)(C)C)cc3)c2cc1OC |
| 105 °C | CCCCCCCCCCCCCCCCCCNC(=O)NCCCS(C)=O (configuration not stated) |
| 110 to 111 °C | N#Cc1ccc(C(=C2CCCCCC2)c2ccc(O)cc2)cc1 |
| > 240 °C | Cc1cc(Cn2cc(C3c4ccccc4C=Cc4ccccc43)c(=S)[nH]c2=O)cc(C(=O)O)c1 |
| 180 to 183 °C | CCOC(=O)n1c(=O)[nH]c2cc(OC)ccc21 |
| 117 to 119 °C | COc1ccc(C(=O)NCCCN(CCCNC(=O)c2ccc(OC)cc2)C(=O)c2ccc(OC)cc2)cc1 |
| 108 to 110 °C | NS(=O)(=O)c1cc(C(=O)CCCCN(CCc2ccccc2OC(F)(F)F)C(=O)C(F)(F)F)cc2c1OCC2 |
| 169 to 170 °C | OC(c1cc(F)ccc1F)c1ccncc1Cl (configuration not stated) |
| 161 °C | N#CC1(C#N)C2C=CC(C2)C1(Cl)Cl (configuration not stated) |
| 179 to 180 °C | COc1cc(C=O)ccc1OCc1nc(-c2cccc([N+](=O)[O-])c2)oc1C |

| melting point | SMILES |
| --- | --- |
| 198 to 200 °C | CCn1c([N+](=O)[O-])cnc1-c1nnc2ccc(N=CN(C)C)nn12 |
| 126 to 128 °C | COCC(=O)N(c1c(C)ccc(CC(=O)Nc2cc(Cl)cc(Cl)c2)c1C)C(C)C(=O)OC (configuration not stated) |
| 123 °C | COc1ccc2oc(Cc3cccnc3)c(CC#N)c2c1 |
| 199 to 201 °C | CC(=O)c1cc2cc(O)c(Cl)c(Cl)c2s1 |
| 175 to 177 °C | O=C1c2ccccc2CS(=O)(=O)N1CC(O)CN1CCOCC1 (configuration not stated) |
| 65 to 69 °C | Cc1cc(SC(C)CC(Sc2cc(C)c(O)c(C(C)(C)C)c2)Sc2cc(C)c(O)c(C(C)(C)C)c2)cc(C(C)(C)C)c1O (configuration not stated) |
| 246 to 248 °C | COC(=O)c1[nH]c(-c2ccccc2)c(NC(N)=O)c1C(=O)OC |
| 122 to 123 °C | Cc1nc(Sc2cc(C(F)(F)F)ccn2)sc1CC(=O)O |
| 87 to 88 °C | COc1cc2c(c3c1OC(C)(C)C3)C(c1cccc(Nc3ccccc3)c1)=NC(C)(C)C2 |
| 116 to 118 °C | CCOC(=O)c1cc(C(=O)C(C)C)c(=O)[nH]c1C(=O)OCC |
| 218 to 220 °C | CCn1cc(C(=O)O)c(=O)c2c(C)c(F)c(N3CCC(N)C3)c(F)c21 (configuration not stated) |
| 97 to 98 °C | CCOC(=O)C1=CC(OC)(OC)CCC1S(=O)(=O)Nc1ccc(F)cc1Cl (configuration not stated) |
| 102 to 103 °C | O=S(CC#CCOc1ccccc1)c1ccc(Cl)cc1 (configuration not stated) |
| 71 to 72 °C | CCCCCCC(=O)C=Cc1ccc(OC(C)=O)c(OC(C)=O)c1 |
| 136 to 139 °C | CCOC(=O)CC(=O)c1cn(C(c2ccccc2)(c2ccccc2)c2ccccc2)cn1 |
| 147 to 148 °C | O=C(O)CNc1cc(Cl)ccc1[N+](=O)[O-] |
| 91 to 97 °C | CCOC(=O)CNc1nc2ccccc2s1 |
| 245 to 247 °C | c1cnc(N2CCN(Cc3ccc4c(c3)Cc3c(-c5ccsc5)n[nH]c3-4)CC2)nc1 |
| 95 to 97 °C | O=C(c1ccccn1)c1csc(-c2ccccc2)n1 |
| 117 to 119 °C | CCOC(=O)c1c(N)sc(-c2ccc([N+](=O)[O-])cc2)c1C |
| 64 to 66 °C | CCC(=NOCc1ccc(Cl)cc1)c1cc(Cl)ccc1N(C(C)=O)S(=O)(=O)C(F)(F)F |
| 198 to 199 °C | OC[C@H](O)[C@H](O)[C@@H](O)[C@@H](O)C=NNc1ccccc1 |
| 107 °C | CCOC(=O)Nc1cc(F)c(C#N)cc1F |
| 89 °C | N#Cc1ccc(C=O)c(SCCc2ccccc2)c1 |
| 172 to 175 °C | O=C(Nc1ccc(SC(F)(F)F)cc1)c1cc(Cl)c2ccccc2c1O |

| melting point | SMILES |
| --- | --- |
| 254 to 256 °C | Cc1nc(N)c2nc(CO)n(NC3CCCC3)c2c1C |
| 144 to 145 °C | CCCCC(=N)NC(=O)Nc1ccc(OC)cc1 |
| 230 to 232 °C | CC(C)Oc1c(C(=O)Nc2nnn[nH]2)sc2c1CS(=O)(=O)CC2 |
| 216 to 219 °C | CC(C)(C)C1=CC(C=O)(C(C)(C)C)NN1 (configuration not stated) |
| 168 to 171 °C | CC(=O)Nc1cccc(-c2ccccc2S(=O)(=O)Nc2onc(C)c2C)c1 |
| 145 to 154 °C | CCCN(CCCc1c[nH]c2c(Cl)cccc12)C1COc2c(F)ccc(C(N)=O)c2C1 (configuration not stated) |
| 242 to 243 °C | Cc1c(-c2ccncc2)nc2n(c1=O)CCCN2 |
| 176 to 179 °C | CCCCCCCCNC1=NS(=O)(=O)c2cnccc2N1 |
| 157 to 159 °C | COc1ccc(C(=O)NCCCCCCCNC(=O)c2ccc(OC)cc2)cc1 |
| 168 to 170 °C | N=C(NCc1c(F)cccc1F)NN=Cc1c(Cl)cccc1Cl |
| 123 to 127 °C | CCC(=O)Cc1ccc(C(=O)Nc2ccc3cc(C(C)N4CCCC4)cnc3c2C)cc1 (configuration not stated) |
| 213 to 215 °C | O=C(O)c1cccc([N+](=O)[O-])c1Nc1ccccc1Cl |
| 96 to 98 °C | OCCNCC(O)c1ccccc1 (configuration not stated) |
| 170 to 172 °C | Cc1ccc2c(C(=O)NCCc3ccccc3)c(Cl)ccc2n1 |
| 114 to 116 °C | O=C(NC1CCN(CCc2ccc(F)cc2)C1)C12CC3CC(CC(C3)C1)C2 (configuration not stated) |
| 71 to 72 °C | CS(=O)(=O)NC1Cc2ccc(C(=O)CCCCCl)cc2C1 (configuration not stated) |
| 86 °C | CC(C)OC(=O)C(=C1SC=CS1)c1ccc(F)cc1 |
| 221 to 224 °C | CC1(C)CC(Oc2ccc(O)nn2)c2cc(C#N)ccc2O1 (configuration not stated) |
| 166 °C | COCCOc1ccc(/C=C/C(=O)O)c(Oc2ccc(C(F)(F)F)cc2Cl)c1 |
| 164 to 166 °C | Oc1ccc(-c2nc(Cn3ccnn3)cs2)cc1 |
| 109 to 113 °C | Cc1nc(-c2ccc(C#N)cc2)sc1C(=O)N[C@H](C)[C@](O)(Cn1cncn1)c1ccc(Cl)cc1Cl |
| 138 °C | Cc1cc(Cl)cc(C(=NCCC(=O)O)c2ccc(Cl)cc2)c1O |
| 136 to 140 °C | COc1cccc(OC)c1C(=O)Nc1ccc(OCCN2CCCC2)cc1 |
| 117 to 119 °C | COc1ccc(C(=O)C(=O)c2ccncc2)cc1OC1CCCC1 |
| 271 to 272 °C | CCOC(=O)C1=C(C)NC2=C(C(=O)CCC2)C1c1nccn1C (configuration not stated) |

| melting point | SMILES |
| --- | --- |
| > 270 °C | O=C(O)c1cc(Cl)c(Cl)cc1C(=O)Nc1cccc(-c2ccnc3c(C(=O)c4cccs4)cnn23)c1 |
| 137 to 139 °C | COc1c(C)c(N2CCN(c3ccc(F)cc3)CC2)c(C)c2c1OC(C)(C)C2 |
| 155 to 157 °C | C=CCOC(=O)CSc1cccc(NC(=O)NCC(=O)N(CC(=O)OC(C)(C)C)c2ccccc2C(=O)c2ccccc2)c1 |
| 135 to 137 °C | CN(C)CCCn1c2c(c3cc(Br)ccc31)CCS(=O)(=O)CCC2 |
| 252 to 254 °C | COc1cc2ncnc(N3CCN(C(=O)Nc4ccc(N(C)C)cc4)CC3)c2cc1OC |
| 118 to 120 °C | O=C1CCC2CCCC3CC(=O)N1C23 (configuration not stated) |
| 77 to 78 °C | C=CC(=O)N1CC(c2ccccc2)c2ccccc21 (configuration not stated) |
| 216 to 217 °C | CC(C)N1C(=O)[C@@H](CC(=O)NCC#N)O[C@H](c2ccccc2Cl)c2cc(Cl)ccc21 (relative stereo) |
| 195 to 197 °C | CC(=O)Nc1cc(C(=O)O)ccc1C(F)(F)F |
| 93 to 94 °C | CCOc1nn(-c2ccc(C(F)(F)F)cn2)cc1CCCOc1ccccc1CCC(=O)O |
| 165 to 166 °C | N#Cc1ccc(OCC(O)CN2CC3CC(C2)CN(C(=O)OCc2ccc([N+](=O)[O-])cc2)C3)cc1 (configuration not stated) |
| > 260 °C | O=C1C(=O)c2c(nc3ccccn23)-c2cccc(Cl)c21 |
| 221 to 223 °C | Clc1ccccc1Oc1ncc2c(-c3cccs3)n[nH]c2n1 |
| 93.5 °C | COC(=O)CCn1cnc2c(Cl)ncnc21 |
| 182 to 183 °C | O=c1ccn(CCO)c(C(O)c2cccnc2)c1OCc1ccccc1 (configuration not stated) |
| > 300 °C | O=C(Nc1ccccc1)OCc1cn(-c2cc3cc(C(=O)O)c(=O)[nH]c3cc2[N+](=O)[O-])cn1 |
| 131 to 132 °C | C=CCn1c(=O)n(CCN2CCN(c3ccccc3OC)CC2)c(=O)c2cscc21 |
| 66 to 68 °C | CC(=O)N(c1ccccc1)c1[nH]c2ccccc2c1Sc1ccccc1 |
| 96 to 98 °C | CCOC(=O)c1cc2c(Br)c(Br)oc2nc1C(=O)OCC |
| 179 to 181 °C | c1ccc2c(c1)nnn2CSCn1nnc2ccccc21 |
| 159 to 161 °C | OC(Cn1cncn1)(Cn1cnc(C=Cc2ccc(C(F)(F)F)cc2)n1)c1ccc(Cl)cn1 (configuration not stated) |
| 54 to 55 °C | CCCCCSc1cc(C(C)(C)C)c(O)c(C(C)(C)C)c1 |
| 185 to 189 °C | O=Cc1cccc(-c2nnn[nH]2)c1 |
| 71 to 72 °C | COC(=O)c1cc2cc(C3OCCO3)ccc2[nH]1 |
| 132 °C | COc1ccccc1CNc1ccc2cc(Nc3cc(C)on3)ccc2n1 |

| SMILES | melting point |
| --- | --- |
| O=C(CBr)OCCCCOC(=O)CBr | 62 to 62.5 °C |
| O=C(Nc1ccc2[nH]ccc2c1)c1cc2cc(F)ccc2n1Cc1cccc(F)c1 | 158 to 163 °C |
